This experiment relates to C57BL/6 female mice. The experiment in a line: Innate cytokines and chemokines in sera of vaccinated mice (SIV-p27 model, AS01B + TLR7-L liposomes). It counts as in vivo. To be noted: for IL-6 in sera / TNF-α in sera / chemokine MCP-1 in sera: after injection, DPPC liposomes with SIV-p27 and AS01B, vs AS01B reference group. From the text:
We evaluated the capacity of TLR7 ligands to promote various aspects of the immune response in mice. Innate immunity was specifically investigated to conclude whether lipidated TLR7 compounds were able to induce innate chemokines and pro-inflammatory cytokines. This innate immune response provides the body with initial, non-specific protection against pathogens. Among these innate chemokines and cytokines, type I IFN is thought to be required for the programming of naïve CD8 T-cell with respect to survival, differentiation and memory development.
10.4 ml of lipidated-TLR7-L A1 at 10 mg/ml in chloroform were transferred into a round-bottomed glass vial. To this vial were added 18.4 ml of DPPC solubilised in chloroform at 100 mg/ml. 21.9 ml of lipidated-TLR7-L compound A3 solubilized at 5 mg/ml in chloroform were transferred into a round-bottomed glass vial. To this vial were added 20 ml of DPPC solubilised in chloroform at 100 mg/ml. Chloroform was evaporated in a Büchi Rotavapor under slow decrease of pressure. The obtained film was further dessicated at least overnight in a dessicator under vacuum. After that, the lipid film was slowly hydrated on an orbital shaker (maximal speed: 250 rpm) using 50 mM PO4-100 mM NaCl, pH 7 buffer pre-heated at 60° C.
After completion of resuspension, a swelling step was carried out in order to further increase the phospholipid hydration, it consists of incubating the preparation at room temperature. The suspension was then pre-homogenized using a rotor-stator homogenizer (X620 CAT) for 12 min at 8000 rpm.
Microfluidization was then carried out using a microfluidizer (Model 110S-Serial 90181-Microfluidics Corporation) at 6 bars while keeping the microfluidization chamber at about 40° C. Sterile filtration was achieved on a PES filter (GD/X 0.2 μm, 25 mm, Whatman).
Lipidated molecules A3 and A1 were evaluated in vivo. The SIV-p27-containing formulations summarized in Table 1 were used to vaccinate 6-8 week old C57BL/6 female mice (10/group). The mice received two intramuscular injections of 50 μl, 14 days apart and were bled at different time points after prime and boost as illustrated in FIG. 1.
The innate and adaptive immune responses induced by the formulations containing the TLR7 agonists and the proprietary AS01B adjuvant (QS21+MPL) were also compared to the one induced by the corresponding AS01B-containing formulations and empty DPPC liposomes.

In the case of `CCCCCCCCCCCCCCCC(=O)OC[C@H](COP(=O)(O)OCCN1CCC(Cn2c(O)nc3c(N)nc(OCCCC)nc32)CC1)OC(=O)CCCCCCCCCCCCCCC` [Compound A1], the IL-6 in sera result is recorded as “enhanced”, the TNF-α in sera entry is “enhanced” and the “chemokine MCP-1 in sera” value is on record as “enhanced”. Besides, the “relative potency in enhancing inflammatory cytokines TNF-α and IL-6” value (comparison of A1 and A3 in DPPC liposome formulations) is reported as “more potent than A3”.

`CCCCCCCCCCCCCCCC(=O)OC[C@H](COP(=O)(O)N1CCN(CCn2c(O)nc3c(N)nc(OCCCC)nc32)CC1)OC(=O)CCCCCCCCCCCCCCC` [Compound A3, 6-Amino-2-butoxy-9-[1-(1,2-dipalmitoyl-sn-glycero-3-phosphoramido)-4-piperazinylethyl]-8-hydroxypurine]: the IL-6 in sera entry is given as “enhanced”, the TNF-α in sera entry is “enhanced” and the “chemokine MCP-1 in sera” value is “enhanced”.

(Values after US9044481B2 (GlaxoSmithKline Biologicals S.A., priority 2009, dated 2015).)
